ChEMBL document CHEMBL1126184, “Synthesis and in vitro evaluation of boronated uridine and glucose derivatives for boron neutron capture therapy” (1992)

Tests used:
Glioma [1] = conditions: Rattus norvegicus
Description: Compound's ability to selectively deliver the requisite amounts of boron to tumors(amount of boron present in media in rat F98 Glioma cells at 0h after incubation with the compound.)

Glioma [2] = conditions: Rattus norvegicus; remark: listed apart in the source
Description: Compound's ability to selectively deliver the requisite amounts of boron to tumors (cellular uptake of boron by the rat F98 Glioma cells at 16h was determined.)

1-[4-Hydroxy-5-hydroxymethyl-3-(1,2,3,4,5,6,7,8,9nonabora-cycloundec-10-en-10-ylmethoxy)-tetrahydro-furan-2-yl]-1H-pyrimidine-2,4-dione
Boron in media at 0h (Glioma [1]): 6.75 µg of B/ml
Cellular uptake of boron at 16h (ug of B (g of cells)-1) (Glioma [2]): 1.5

4-(1,2,3,4,5,6,7,8,9,10decabora-Cyclododec-11-en-11-ylmethoxy)-6-hydroxymethyl-tetrahydro-pyran-2,3,5-triol
Boron in media at 0h (Glioma [1]): 6.75 µg of B/ml
Cellular uptake of boron at 16h (ug of B (g of cells)-1) (Glioma [2]): 65.2

1-[5-(1,2,3,4,5,6,7,8,9,10decabora-Cyclododec-11-en-11-ylmethoxymethyl)-3,4-dihydroxy-tetrahydro-furan-2-yl]-1H-pyrimidine-2,4-dione
Boron in media at 0h (Glioma [1]): 6.75 µg of B/ml
Cellular uptake of boron at 16h (ug of B (g of cells)-1) (Glioma [2]): 83.8

1-[3-(1,2,3,4,5,6,7,8,9,10decabora-Cyclododec-11-en-11-ylmethoxy)-4-hydroxy-5-hydroxymethyl-tetrahydro-furan-2-yl]-1H-pyrimidine-2,4-dione
Boron in media at 0h (Glioma [1]): 6.75 µg of B/ml
Cellular uptake of boron at 16h (ug of B (g of cells)-1) (Glioma [2]): 104

1-[4-(1,2,3,4,5,6,7,8,9,10decabora-Cyclododec-11-en-11-ylmethoxy)-3-hydroxy-5-hydroxymethyl-tetrahydro-furan-2-yl]-1H-pyrimidine-2,4-dione
Boron in media at 0h (Glioma [1]): 6.75 µg of B/ml
Cellular uptake of boron at 16h (ug of B (g of cells)-1) (Glioma [2]): 96.2
